Results on two compounds are retold here after ChEMBL document CHEMBL1155609, “New cytotoxic sterol glycosides from the octocoral Carijoa (Telesto) riisei” (2000).

The test concerns HCT-116. Description: Cytotoxicity against human HCT116 cells. The format is functional. To be noted: read-out: ED50 (the source's name).

≈ marks a conversion by molar mass, not a printed value.

As to `CC(=O)OCC(C)CCC[C@@H](C)[C@H]1CC[C@H]2[C@@H]3C[C@@H](O)[C@@]4(O)C[C@@H](O[C@@H]5OC[C@@H](O)[C@@H](OC(C)=O)[C@@H]5O)CC[C@]4(C)[C@H]3CC[C@]12C` (some centres not stated) [RIISEIN A], the EC50 was found to be 2 mg/L (≈ 3.06 µM).
For the compound `CC(=O)OCC(C)CCC[C@@H](C)[C@H]1CC[C@H]2[C@@H]3C[C@@H](O)[C@@]4(O)C[C@@H](O[C@@H]5OC[C@@H](OC(C)=O)[C@@H](O)[C@@H]5O)CC[C@]4(C)[C@H]3CC[C@]12C` (some centres not stated) [RIISEIN B], the EC50 was determined as 2 mg/L (≈ 3.06 µM).
